Active and inactive are the calls of the source.
Legend:
Rotala indica [1] = test: Pre-emergence herbicidal activity against Rotala indica at 2000 g a.i/ha measured after 14 days; assay type: functional, organism-based
Pontederia vaginalis [2] = test: Pre-emergence herbicidal activity against Monochoria vaginalis assessed as bleaching of stem/leaf parts; assay type: functional, organism-based
Pontederia vaginalis [3] = test: Pre-emergence herbicidal activity against Monochoria vaginalis at 2000 g a.i/ha measured after 14 days; assay type: functional, organism-based
Oryza sativa = test: Phytotoxicity against Oryza sativa cv. Koshihikari (rice) at 2000 g a.i/ha measured after 14 days; assay type: organism-based; conditions: in vivo, 336 h
Ammannia multiflora [4] = test: Pre-emergence herbicidal activity against Ammannia multiflora assessed as bleaching of stem/leaf parts; assay type: functional, organism-based
Cyperus difformis [5] = test: Post-emergence herbicidal activity against Cyperus difformis assessed as bleaching of stem/leaf parts; assay type: functional, organism-based; also: test concentration or dose not given here
Lindernia procumbens [6] = test: Post-emergence herbicidal activity against Lindernia procumbens assessed as bleaching of stem/leaf parts; assay type: functional, organism-based; also: test concentration or dose not given here
Ammannia multiflora [7] = test: Post-emergence herbicidal activity against Ammannia multiflora assessed as bleaching of stem/leaf parts; assay type: functional, organism-based; also: test concentration or dose not given here
Rotala indica [8] = test: Post-emergence herbicidal activity against Rotala indica assessed as bleaching of stem/leaf parts; assay type: functional, organism-based; also: test concentration or dose not given here
Rotala indica [9] = test: Pre-emergence herbicidal activity against Rotala indica assessed as bleaching of stem/leaf parts; assay type: functional, organism-based
Eleocharis acicularis [10] = test: Post-emergence herbicidal activity against Eleocharis acicularis assessed as bleaching of stem/leaf parts; assay type: functional, organism-based; also: test concentration or dose not given here
Lindernia procumbens [11] = test: Pre-emergence herbicidal activity against Lindernia procumbens at 2000 g a.i/ha measured after 14 days; assay type: functional, organism-based
Cyperus difformis [12] = test: Pre-emergence herbicidal activity against Cyperus difformis assessed as bleaching of stem/leaf parts; assay type: functional, organism-based
Ammannia multiflora [13] = test: Pre-emergence herbicidal activity against Ammannia multiflora at 2000 g a.i/ha measured after 14 days; assay type: functional, organism-based
Elatine triandra [14] = test: Pre-emergence herbicidal activity against Elatine triandra at 2000 g a.i/ha measured after 14 days; assay type: functional, organism-based
Pontederia vaginalis [15] = test: Post-emergence herbicidal activity against Monochoria vaginalis assessed as bleaching of stem/leaf parts; assay type: functional, organism-based; also: test concentration or dose not given here
Elatine triandra [16] = test: Pre-emergence herbicidal activity against Elatine triandra assessed as bleaching of stem/leaf parts; assay type: functional, organism-based
Elatine triandra [17] = test: Post-emergence herbicidal activity against Elatine triandra assessed as bleaching of stem/leaf parts; assay type: functional, organism-based; also: test concentration or dose not given here
Eleocharis acicularis [18] = test: Pre-emergence herbicidal activity against Eleocharis acicularis at 2000 g a.i/ha measured after 14 days; assay type: functional, organism-based
Echinochloa oryzicola [19] = test: Pre-emergence herbicidal activity against Echinochloa oryzicola at 2000 g a.i/ha measured after 14 days; assay type: functional, organism-based
Eleocharis acicularis [20] = test: Pre-emergence herbicidal activity against Eleocharis acicularis assessed as bleaching of stem/leaf parts; assay type: functional, organism-based
Cyperus difformis [21] = test: Pre-emergence herbicidal activity against Cyperus difformis at 2000 g a.i/ha measured after 14 days; assay type: functional, organism-based
[22] = system: Schoenoplectiella juncoides; test: Pre-emergence herbicidal activity against Schoenoplectiella juncoides assessed as bleaching of stem/leaf parts; assay type: functional, organism-based
Echinochloa oryzicola [23] = test: Pre-emergence herbicidal activity against Echinochloa oryzicola assessed as bleaching of stem/leaf parts; assay type: functional, organism-based
Lindernia procumbens [24] = test: Pre-emergence herbicidal activity against Lindernia procumbens assessed as bleaching of stem/leaf parts; assay type: functional, organism-based
[25] = system: Schoenoplectiella juncoides; test: Post-emergence herbicidal activity against Schoenoplectiella juncoides assessed as bleaching of stem/leaf parts; assay type: functional, organism-based; also: test concentration or dose not given here
Echinochloa oryzicola [26] = test: Post-emergence herbicidal activity against Echinochloa oryzicola assessed as bleaching of stem/leaf parts; assay type: functional, organism-based; also: test concentration or dose not given here
[27] = system: Schoenoplectiella juncoides; test: Pre-emergence herbicidal activity against Schoenoplectiella juncoides at 2000 g a.i/ha measured after 14 days; assay type: functional, organism-based

SMILES | Activity (Rotala indica [1]) | Activity (Pontederia vaginalis [2]) | Activity (Pontederia vaginalis [3]) | Activity (Oryza sativa) | Activity (Ammannia multiflora [4]) | Activity (Cyperus difformis [5]) | Activity (Lindernia procumbens [6]) | Activity (Ammannia multiflora [7]) | Activity (Rotala indica [8]) | Activity (Rotala indica [9]) | Activity (Eleocharis acicularis [10]) | Activity (Lindernia procumbens [11]) | Activity (Cyperus difformis [12]) | Activity (Ammannia multiflora [13]) | Activity (Elatine triandra [14]) | Activity (Pontederia vaginalis [15]) | Activity (Elatine triandra [16]) | Activity (Elatine triandra [17]) | Activity (Eleocharis acicularis [18]) | Activity (Echinochloa oryzicola [19]) | also measured
CCCN(CC)C(=O)c1cn(C)nc1OCc1cc(C(F)(F)F)cc(C(F)(F)F)c1 | inactive | Active | inactive | Non-toxic | Active | Active | Active | Active | Active | Active | Active | inactive | Active | inactive | inactive | Active | Active | Active | inactive | inactive | Activity (Eleocharis acicularis [20]): Active; Activity (Cyperus difformis [21]): inactive; Activity [22]: Active; Activity (Echinochloa oryzicola [23]): Active; Activity (Lindernia procumbens [24]): Active; Activity [25]: Active; Activity (Echinochloa oryzicola [26]): Active; Activity [27]: inactive
CCCN(CC)C(=O)c1cn(C)nc1OCc1cccc(C(F)(F)F)c1 | inactive | Active | Active | Toxic | Active | Active | Active | Active | Active | Active | Active | inactive | Active | inactive | inactive | Active | Active | Active | Active | Active | Activity (Eleocharis acicularis [20]): Active; Activity (Cyperus difformis [21]): Active; Activity [22]: Active; Activity (Echinochloa oryzicola [23]): Active; Activity (Lindernia procumbens [24]): Active; Activity [25]: Active; Activity (Echinochloa oryzicola [26]): Active; Activity [27]: Active
CCCN(CC)C(=O)c1cn(C)nc1OCc1cc(F)cc(F)c1 | Active | Active | Active | Non-toxic | Active | Active | Active | Active | Active | Active | Active | Active | Active | Active | Active | Active | Active | Active | inactive | Active | Activity (Eleocharis acicularis [20]): Active; Activity (Cyperus difformis [21]): Active; Activity [22]: Active; Activity (Echinochloa oryzicola [23]): Active; Activity (Lindernia procumbens [24]): Active; Activity [25]: Active; Activity (Echinochloa oryzicola [26]): Active; Activity [27]: Active
CCCN(CC)C(=O)c1cn(C)nc1OCc1cccc(F)c1 | Active | Active | Active | Non-toxic | Active | Active | Active | Active | Active | Active | Active | Active | Active | Active | Active | Active | Active | Active | Active | Active | Activity (Eleocharis acicularis [20]): Active; Activity (Cyperus difformis [21]): Active; Activity [22]: Active; Activity (Echinochloa oryzicola [23]): Active; Activity (Lindernia procumbens [24]): Active; Activity [25]: Active; Activity (Echinochloa oryzicola [26]): Active; Activity [27]: Active

— ChEMBL document CHEMBL3046635, “Synthesis and Herbicidal Activity of New Pyrazole-4-carboxamide Derivatives” (J Pestic Sci, 2004)
